Source: BindingDB's records for patent US10934302 (Relay Therapeutics, 2021)

These compounds were tested against T1, Tyrosine-protein phosphatase non-receptor type 11 (Homo sapiens, UniProt Q06124) (assay: Allosteric Inhibition Assay).
T1 sequence (Q06124 whole entry): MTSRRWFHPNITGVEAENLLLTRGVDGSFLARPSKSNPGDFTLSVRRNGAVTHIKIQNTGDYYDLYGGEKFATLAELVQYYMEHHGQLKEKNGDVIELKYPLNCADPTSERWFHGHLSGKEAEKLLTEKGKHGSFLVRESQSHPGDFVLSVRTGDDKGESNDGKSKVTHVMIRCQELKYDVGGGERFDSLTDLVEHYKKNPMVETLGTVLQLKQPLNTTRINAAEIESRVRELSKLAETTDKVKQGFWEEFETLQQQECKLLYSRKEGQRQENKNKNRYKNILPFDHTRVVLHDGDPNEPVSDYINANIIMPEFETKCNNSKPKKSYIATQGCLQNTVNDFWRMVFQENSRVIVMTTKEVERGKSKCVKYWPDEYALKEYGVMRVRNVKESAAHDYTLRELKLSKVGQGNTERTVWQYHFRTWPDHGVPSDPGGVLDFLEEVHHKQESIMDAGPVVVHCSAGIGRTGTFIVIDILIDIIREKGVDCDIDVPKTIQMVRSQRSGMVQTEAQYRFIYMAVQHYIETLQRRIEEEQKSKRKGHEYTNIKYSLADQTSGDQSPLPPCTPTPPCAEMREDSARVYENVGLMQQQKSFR

IC50 [µM]	Compound
< 0.05	Cc1cc(C(=O)N2CCC3(CC2)Cc2ccccc2[C@H]3N)nn1-c1ccc(F)cc1F [US10934302, Example 289]
< 0.05	N[C@@H]1c2ccccc2CC12CCN(c1cnc(/C(=N/O)c3ccccc3)cn1)CC2 [US10934302, Example 257]

Compound	IC50 [µM]
N[C@@H]1c2ccccc2CC12CCN(c1cnc(SCC3CC3)cn1)CC2 [US10934302, Example 266]	< 0.05
